We go through one molecule from PMC11567856, “A novel peptide‐based tau aggregation inhibitor as a potential therapeutic for Alzheimer's disease and other tauopathies” (Alzheimer's & Dementia, 2024).

For data set [1], the target named is T1, Tau^Δ1‐250 (Homo sapiens, UniProt P10636).
T1 construct: Tau^Δ1‐250 (an aggregate prone truncated version of full‐length Tau); made in house; host or cells: E. coli BL21(DE3)
The data set is described as follows: Circular dichroism of Tau^Δ1‐250 aggregation. The note with it: 20 µM Tau^Δ1‐250, 20 µM RI‐AG03, aggregated 5 h; CD 180–260 nm. The format is biochemical. The procedure:
Circular dichroism (CD): CD spectra were obtained using a Chirascan plus qCD spectrometer between 180 and 260 nm with a bandwidth of 1 nm and a path length of 2 mm.
FIGURE 4 Lead peptide RI‐AG03 suppresses Tau β‐sheet content and forms of off‐pathway structures. […] 20 µM RI‐AG03 was added after 0, 24, and 72 h, of Tau aggregation (hatched gray bars), or not at all (solid gray bar representing end‐point aggregation of Tau^2N4R at 9 days). Note that Tau^2N4R aggregation plateaued at ∼72 h. […] One factor repeated measures ANOVA + Tukey post hoc statistical analysis: p > 0.05, *p ≤ 0.05, **p ≤ 0.01, ***p ≤ 0.001. (C) Negative stain TEM images using a Joel JEM‐1010 after the aggregation of 20 µM Tau^Δ1‐250 for 24 h, in the absence of RI‐AG03 (left), and in the presence of 20 µM RI‐AG03 (right). (D) The area and diameter of 200 large spherical species formed in the presence of 20 µM RI‐AG03 and recorded by TEM were quantified using iTEM software. […]
(Circular dichroism is widely used to follow secondary structure.)

Data set [2] deals with T1, Tau^Δ1‐250. The data set is described as follows: Seeded Tau^Δ1‐250 aggregation with preformed filaments, no heparin. The format is biochemical. The note with it: Tau monomers incubated with preformed Tau^Δ1‐250 filaments, no heparin (Figure S10).
Another data set in a line: in vitro. The note with it: isolated enzyme trypsin.
Data set [3] relates to Tau repeat domain (RD) with the P301S mutation fused to mCer and mClo, HEK293 biosensor cells. Nature of the data set: Tau fibril seeding in FRET Tau biosensor cells. The data set is classed as cell-based, human. The procedure:
Tau biosensor cells culture: RD P301S Tau biosensor cells have been previously described,[45] and in this case v2L cells were used. Cells were cultured in 10 cm dishes containing Dulbecco's Modified Eagle's Medium (DMEM) (Gibco) enriched with 10% FBS (HyClone), 1% penicillin/streptomycin (Gibco), and 1% GlutaMAX (Gibco) at 37°C with 5% CO2 in a humidified incubator.
5 µM of tau fibrils (monomer equivalent) were incubated in PBS with peptide RI‐AG03 or scramble (0–500 µM) at 300 rpm agitation at 4°C for 16 h. The reaction was stopped by flash freezing in liquid nitrogen and stored at –20°C. Tau biosensor cells were plated at a density of 30,000 cells in 120 µL of media per well in a 96‐well plate. After 18 h, using Lipofectamine 2000 cells were transduced with 10 nM of treated fibrils that had been briefly sonicated for 30 s at 65 Amp (QSonica). Lipofectamine complexes were formed in 30 µL consisting of 14.17 µL Opti‐MEM (Gibco), 15 µL of treated fibrils diluted in PBS, and 0.83 µL lipofectamine 2000 (Invitrogen), bringing the total volume to 150 µL. […] Aggregates in Tau biosensors (10,000 minimum) were quantified by FRET flow cytometry in a LSRFortessa SORP (BD Biosciences). To detect the cerulean signal, cells were excited with a 405 nm laser, and fluorescence was captured at […]. For clover signal, cells were excited with a 488 nm laser and fluorescence was detected at 525/50 nm. Flow cytometry data were analyzed using a gating strategy previously described.[45], [47] The percentage of cells with positive FRET signal were quantified. Each condition was analyzed in quadruplicate. […]
To test RI‐AG03 efficacy in mammalian cells, we utilized a fluorescence resonance energy transfer (FRET) biosensor HEK293 cell line that stably expresses the Tau repeat domain (RD) with the P301S mutation fused to mCer and mClo. These cells[45] or prior generations[71] have been used extensively to quantify Tau seeding activity and measure intracellular aggregation.[71] […] Seeded aggregation was quantified by the percentage of FRET positivity.

Data set [4] deals with hTau^2N4R aggregates in Elav/hTau^2N4R flies. Nature of the data set: AFM of insoluble Tau fraction from fly heads. The data set is classed as in vivo, Drosophila melanogaster. The note with it: 6 weeks of treatment, 0.08 µM inhibitor (Figure 6 legend), insoluble Tau prep, n = 3, p = 0.0045. The procedure:
[…] Decapitated fly heads were homogenized in TBS/sucrose buffer (50 mM Tris‐HCl pH 7.4, 175 mM NaCl, 1 M sucrose, 5 mM EDTA and protease inhibitor cocktail). Samples were spun for 2 min at 1000 g, retaining the supernatant, which was then spun at 100,000 g for 30 min at 4°C. The supernatant included the aqueous soluble fraction and monomeric Tau “NS1.” The pellet was re‐suspended at ∼20°C–25°C in 5% SDS/TBS buffer (50 mM Tris‐HCl pH 7.4, 175 mM NaCl, 5% SDS, and protease inhibitor cocktail) and spun at 100,000 g for 30 at 25°C. The pellet “NP1” was washed three times with water to remove the remaining SDS from the fractionation and re‐suspended in 1X PBS. A solid glass bead was added to each sample and incubated overnight in a rotor at 4°C. AFM: NP1 (5 µL) was diluted in 1X PBS and 25 µL of the sample was placed in a freshly cleaved 10 mm mica disc. These were incubated at ∼20°C–25°C for 5 min. Samples were rinsed four times with ultrapure water and dried with compressed air. Samples were imaged in the air with a digital multimode Nanoscope IV AFM operating in tapping mode with an aluminum‐coated non‐contact/Tapping mode probe (resonance frequency 320 kHz and force constant 42 N/m). The images are representative of the sample and were taken at random points on the sample with a scan rate of 1–2 Hz. […] Quantification of aggregates was carried out using ImageJ software.

The structures appear in SMILES notation. Where a SMILES comes first, the peptide text is derived from it. [ ]: non-standard residue; d: D form.

T1 sequence (P10636 568-758, stated change not applied): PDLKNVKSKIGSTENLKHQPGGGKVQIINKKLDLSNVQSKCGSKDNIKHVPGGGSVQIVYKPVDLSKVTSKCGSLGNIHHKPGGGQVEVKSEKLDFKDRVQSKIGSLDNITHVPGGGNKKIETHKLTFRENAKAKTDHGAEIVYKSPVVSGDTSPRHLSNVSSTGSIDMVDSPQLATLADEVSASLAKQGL
Method for in vitro: 15% SDS PAGE gels of AG03 (100 µM) and RI-AG03 (100 µM) treated with and without equimolar
Trypsin concentration for 24-hours at 37 °C.

For `CC[C@@H](C)[C@@H](NC(=O)[C@@H](CCCCNC(C)=O)NC(=O)[C@@H](Cc1ccc(O)cc1)NC(=O)[C@@H](CCCCN)NC(=O)[C@H]1CCCN1C(=O)CNC(=O)[C@@H](CCCNC(=N)N)NC(=O)[C@@H](CCCNC(=N)N)NC(=O)[C@@H](CCCNC(=N)N)NC(=O)[C@@H](CCCNC(=N)N)NC(=O)[C@@H](CCCNC(=N)N)NC(=O)[C@@H](CCCNC(=N)N)NC(=O)[C@@H](CCCNC(=N)N)NC(=O)[C@@H](CCCNC(=N)N)NC(C)=O)C(=O)N[C@H](CCC(N)=O)C(=O)N[C@@H](C(=O)NCC(=O)N[C@H](CCCNC(=N)N)C(N)=O)C(C)C` [RI‐AG03] (Ac-[dR][dR][dR][dR][dR][dR][dR][dR]G[dP][dK][dY][dK](Ac)[dI][dQ][dV]G[dR]-NH2), the “CD spectral changes (random coil to secondary structure incl. β‐strands)” value at Tau^Δ1‐250 [1] is reported as “significantly suppressed”. The “effect on seeded Tau^Δ1‐250 aggregation in the absence of heparin” value at Tau^Δ1‐250 [2] is “demonstrated efficacy at inhibiting seeded Tau^Δ1‐250 aggregation”. The metabolised at 24 h, 100 µM in the data set “in vitro” was 19%. The “concentrations with peptide‐induced toxicity (decrease in FRET positivity)” value in data set [3] (biosensor cells, fibrils preincubated with 0–500 µM peptide, Figure 5C) is given as “above 100 µM”. In addition, in data set [3] (preformed fibrils incubated with 30 µM peptide, compared with scramble peptide), the “aggregates (green puncta) in biosensor cells by fluorescence microscopy” value is “fewer aggregates”. Also, the “reduction in oligomeric and fibrillar Tau species (AFM)” value in data set [4] is 73%.
